Laboratory results: patent publication US20250320184A1 (SIRONAX LTD., priority 2022, published 2025)

What follows are compounds tested against T1, SARM1 (50-724) (Homo sapiens, UniProt Q6SZW1) (assay: biochemical).
T1 sequence (Q6SZW1 50-724): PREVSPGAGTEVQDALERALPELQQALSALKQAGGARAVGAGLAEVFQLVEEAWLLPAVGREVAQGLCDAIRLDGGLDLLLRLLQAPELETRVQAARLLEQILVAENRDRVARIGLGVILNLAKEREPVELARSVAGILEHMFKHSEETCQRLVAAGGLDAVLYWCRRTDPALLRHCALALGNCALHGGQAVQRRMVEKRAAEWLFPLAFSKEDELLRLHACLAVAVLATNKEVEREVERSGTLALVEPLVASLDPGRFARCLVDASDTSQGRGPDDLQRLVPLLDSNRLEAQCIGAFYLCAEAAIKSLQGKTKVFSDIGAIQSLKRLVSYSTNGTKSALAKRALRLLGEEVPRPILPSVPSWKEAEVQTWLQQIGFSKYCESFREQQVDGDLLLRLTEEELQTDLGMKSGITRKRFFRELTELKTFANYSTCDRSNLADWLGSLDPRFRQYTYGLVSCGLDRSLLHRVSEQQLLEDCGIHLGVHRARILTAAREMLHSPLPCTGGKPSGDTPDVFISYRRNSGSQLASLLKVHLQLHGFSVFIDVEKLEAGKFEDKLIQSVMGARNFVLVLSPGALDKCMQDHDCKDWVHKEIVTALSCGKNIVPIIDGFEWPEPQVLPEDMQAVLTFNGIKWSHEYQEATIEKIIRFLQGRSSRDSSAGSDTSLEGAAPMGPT
Description: An enzymatic assay was performed in a 384-well plate using Dulbecco's phosphate-buffered saline (PBS) as the reaction buffer. […] The reaction was initiated by adding a mixture of 200 μM nicotinamide mononucleotide (NMN) as activator and 100 μM NAD^+ as substrate. After 1 h of incubation at room temperature, the reaction was terminated with 10 times volume of 70% acetonitrile, then centrifuged at 3800 rpm for 10 min.
An IC50 greater than 1000 nM was found for CCC1CCCCN1S(=O)(=O)Nc1ccc2c(c1)C(=O)NCC2 (racemic) [Compound 48, 2-ethyl-N-(1-oxo-1,2,3,4-tetrahydroisoquinolin-7-yl)piperidine-1-sulfonamide] in this work. An IC50 of less than 100 nM was found for CC(Nc1cc(F)c2c(c1)C(=O)NC2(C)C)c1nc(Cl)c(Cl)s1 (racemic) [Compound 318, 6-((1-(4,5-dichlorothiazol-2-yl)ethyl)amino)-4-fluoro-3,3-dimethylisoindolin-1-one] in this work. An IC50 of 500 to 1000 nM was found for CC(Nc1ccc2cn[nH]c2c1)c1cccc(Cl)c1Cl (stereo not drawn) [Example 12A, N-(1-(2,3-dichlorophenyl)ethyl)-1H-indazol-6-amine] in this work. An IC50 of less than 100 nM was found for CC(Nc1ccc2ccc(=O)[nH]c2c1)c1nc(Cl)c(Cl)s1 (racemic) [Compound 231, 7-[1-(4,5-dichlorothiazol-2-yl)ethylamino]-1H-quinolin-2-one] in this work. An IC50 of less than 100 nM was found for CC(=O)NC1CCCc2ccc(NS(=O)(=O)c3cccc(Cl)c3Cl)cc21 (racemic) [Compound 283, N-(7-((2,3-dichlorophenyl)sulfonamido)-1,2,3,4-tetrahydronaphthalen-1-yl)acetamide] in this work. An IC50 of less than 100 nM was found for CC1(C)CN(C(=O)C2(C(N)=O)CC2)c2cc(NS(=O)(=O)c3cccc(Cl)c3Cl)ccc21 [Compound 313, 1-(6-((2,3-dichlorophenyl)sulfonamido)-3,3-dimethylindoline-1-carbonyl)cyclopropane-1-carboxamide] in this work. An IC50 of less than 100 nM was found for CC1(C)CN(C(=O)C2CCOCC2)c2cc(NS(=O)(=O)c3cccc(Cl)c3Cl)ccc21 [Compound 284, 2,3-dichloro-N-[3,3-dimethyl-1-(tetrahydropyran-4-carbonyl)indolin-6-yl]benzenesulfonamide] in this work. An IC50 of less than 100 nM was found for Cc1c2c(F)cc(NC(C)c3nc(Cl)c(Cl)s3)cc2nn1CC(N)=O (single isomer, unassigned) [Compound 391] in this work. An IC50 of less than 100 nM was found for Cc1nn(CC(N)=O)c(=O)c2cc(NC(C)c3nc(Cl)c(Cl)s3)ccc12 (single isomer, unassigned) [Compound 357] in this work. An IC50 greater than 1000 nM was found for CC(Nc1ccc2ccn(C)c(=O)c2c1)c1ncc(Cl)s1 (racemic) [Compound 182, 7-((1-(5-chlorothiazol-2-yl)ethyl)amino)-2-methylisoquinolin-1(2H)-one] in this work. An IC50 of less than 100 nM was found for CCC(C(N)=O)c1ccc(NS(=O)(=O)c2cccc(Cl)c2Cl)cc1 (single isomer, unassigned) [Compound 270] in this work. An IC50 of less than 100 nM was found for CC(Nc1ccc2cc[nH]c(=O)c2c1)c1cc(Cl)cc(Cl)c1Cl (racemic) [Example 138, 7-((1-(2,3,5-trichlorophenyl)ethyl)amino)isoquinolin-1(2H)-one] in this work. An IC50 of 100 to 500 nM was found for Cc1ccc(F)cc1C(C)Nc1ccc2c(c1)C(=O)NCC2 (racemic) [Example 105, 7-((1-(5-fluoro-2-methylphenyl)ethyl)amino)-3,4-dihydroisoquinolin-1(2H)-one] in this work. An IC50 of 100 to 500 nM was found for CC(Nc1ccc2cc[nH]c(=O)c2c1)c1ccnc(Cl)c1Cl (racemic) [Example 131, 7-((1-(2,3-dichloropyridin-4-yl)ethyl)amino)isoquinolin-1(2H)-one] in this work. An IC50 of 100 to 500 nM was found for CC(Nc1ccc2cc[nH]c(=O)c2c1)c1cc(F)cc(F)c1 (racemic) [Example 114, 7-((1-(3,5-difluorophenyl)ethyl)amino)isoquinolin-1(2H)-one] in this work. An IC50 of less than 100 nM was found for CC1(C)C(=O)N(CC(=O)O)c2cc(NS(=O)(=O)c3cccc(Cl)c3Cl)ccc21 [Compound 241, 2-[6-[(2,3-dichlorophenyl)sulfonylamino]-3,3-dimethyl-2-oxo-indolin-1-yl]acetic Acid] in this work. An IC50 greater than 1000 nM was found for C[C@H](Nc1ccc2c(c1)NC(=O)C2(C)C)c1nc(Cl)c(Cl)s1 (single isomer, unassigned) [Compound 234A] in this work. An IC50 of less than 100 nM was found for Cc1c2c(F)cc(NC(C)c3c(F)ccc(Cl)c3Cl)cc2nn1CC(N)=O (racemic) [Compound 364, 2-(6-((1-(2,3-dichloro-6-fluorophenyl)ethyl)amino)-4-fluoro-3-methyl-2H-indazol-2-yl)acetamide] in this work. An IC50 of 100 to 500 nM was found for Cc1cccc(S(=O)(=O)Nc2ccc3c(c2)C(=O)NCC3)c1C [Compound 50, 2,3-dimethyl-N-(1-oxo-1,2,3,4-tetrahydroisoquinolin-7-yl)benzenesulfonamide] in this work. An IC50 of less than 100 nM was found for CC(=O)N1CC(C)(C)c2ccc(NS(=O)(=O)c3cccc(Cl)c3Cl)cc21 [Compound 220, N-(1-acetyl-3,3-dimethyl-indolin-6-yl)-2,3-dichloro-benzenesulfonamide] in this work. An IC50 of 500 to 1000 nM was found for Cc1cccc(C)c1S(=O)(=O)Nc1ccc2c(c1)C(=O)NCC2 [Compound 18, 2,6-dimethyl-N-(1-oxo-1,2,3,4-tetrahydroisoquinolin-7-yl)benzenesulfonamide] in this work. An IC50 greater than 1000 nM was found for CC(Nc1ccc2c(C(F)(F)F)n(CC(N)=O)nc2c1)c1nc(Cl)c(Cl)s1 (single isomer, unassigned) [Compound 368] in this work. An IC50 greater than 1000 nM was found for O=C1NCCc2ccc(NS(=O)(=O)c3ccccc3Cl)cc21 [Example 6A, 2-chloro-N-(1-oxo-1,2,3,4-tetrahydroisoquinolin-7-yl)benzenesulfonamide] in this work. An IC50 of 500 to 1000 nM was found for CC(Nc1ccc2ccn(Cc3ccccc3)c(=O)c2c1)c1cccc(Cl)c1Cl (racemic) [Example 142, 2-benzyl-7-((1-(2,3-dichlorophenyl)ethyl)amino)isoquinolin-1(2H)-one] in this work. An IC50 greater than 1000 nM was found for CC(Nc1ccc2cc[nH]c(=O)c2c1)c1ccccc1F (racemic) [Example 115, 7-((1-(2-fluorophenyl)ethyl)amino)isoquinolin-1(2H)-one] in this work. An IC50 of less than 100 nM was found for O=c1[nH]cc(Cl)c2ccc(NS(=O)(=O)c3cccc(Cl)c3Cl)cc12 [Compound 91, 2,3-dichloro-N-(4-chloro-1-oxo-1,2-dihydroisoquinolin-7-yl)benzenesulfonamide] in this work. An IC50 of less than 100 nM was found for Cc1c2ccc(NC(C)c3snc(Cl)c3Cl)cc2nn1CC(N)=O (single isomer, unassigned) [Compound 341A] in this work. An IC50 of less than 100 nM was found for CC1(C)CN(C(=O)c2cccnc2)c2cc(NS(=O)(=O)c3cccc(Cl)c3Cl)ccc21 [Compound 285, 2,3-dichloro-N-(3,3-dimethyl-1-nicotinoylindolin-6-yl)benzenesulfonamide] in this work. An IC50 of 100 to 500 nM was found for Cn1c(C(N)=O)nc2cc(NS(=O)(=O)c3cccc(Cl)c3Cl)ccc21 [Compound 225, 5-((2,3-dichlorophenyl)sulfonamido)-1-methyl-1H-benzo[d]imidazole-2-carboxamide] in this work. An IC50 greater than 1000 nM was found for CC(Nc1cccc(-c2cccnn2)c1)c1cccc(Cl)c1Cl (racemic) [Example 150, N-(1-(2,3-dichlorophenyl)ethyl)-3-(pyridazin-3-yl)aniline] in this work. An IC50 of 100 to 500 nM was found for CC(Nc1ccc2c(c1)NC(=O)CCC2)c1nc(Cl)c(Cl)s1 (racemic) [Compound 229, 8-[1-(4,5-dichlorothiazol-2-yl)ethylamino]-1,3,4,5-tetrahydro-1-benzazepin-2-one] in this work. An IC50 of less than 100 nM was found for Cc1c2ccc(NC(C)c3nc(Cl)c(Cl)s3)cc2nn1CC(N)=O (single isomer, unassigned) [Compound 312] in this work. An IC50 of less than 100 nM was found for [2H]C(C)(Nc1ccc2c(C)n(CC(N)=O)nc2c1)c1nc(Cl)c(Cl)s1 (single isomer, unassigned) [Compound 377] in this work. An IC50 of 100 to 500 nM was found for CC(Nc1ccc2ccn(C)c(=O)c2c1)c1cncc(Cl)c1Cl (racemic) [Compound 184, 7-((1-(4,5-dichloropyridin-3-yl)ethyl)amino)-2-methylisoquinolin-1(2H)-one] in this work. An IC50 of less than 100 nM was found for O=C1NC(CO)CCc2ccc(NS(=O)(=O)c3cccc(Cl)c3Cl)cc21 (racemic) [Compound 304A, 2,3-dichloro-N-(3-(hydroxymethyl)-1-oxo-2,3,4,5-tetrahydro-1H-benzo[c]azepin-8-yl)benzenesulfonamide] in this work. An IC50 of less than 100 nM was found for CC1CNC(=O)c2cc(NS(=O)(=O)c3cccc(Cl)c3Cl)ccc21 (stereo not drawn) [Compound 189] in this work. An IC50 greater than 1000 nM was found for Cc1ccccc1S(=O)(=O)Nc1ccc2c(c1)C(=O)NCC2 [Compound 9, 2-methyl-N-(1-oxo-1,2,3,4-tetrahydroisoquinolin-7-yl)benzenesulfonamide] in this work. An IC50 of less than 100 nM was found for CC(Nc1cc(F)c2ncn(-c3nncs3)c(=O)c2c1)c1nc(Cl)c(Cl)s1 (racemic) [Example 369, 6-((1-(4,5-dichlorothiazol-2-yl)ethyl)amino)-8-fluoro-3-(1,3,4-thiadiazol-2-yl)quinazolin-4(3H)-one] in this work. An IC50 of less than 100 nM was found for CC1N(C(=O)CC(N)=O)c2cc(NS(=O)(=O)c3cccc(Cl)c3Cl)ccc2C1(C)C (racemic) [Compound 329, 3-(6-((2,3-dichlorophenyl)sulfonamido)-2,3,3-trimethylindolin-1-yl)-3-oxopropanamide] in this work. An IC50 of less than 100 nM was found for CC(Nc1ccc2c(C(F)(F)F)n(CC(N)=O)nc2c1)c1nc(Cl)c(Cl)s1 (racemic) [Compound 366, 2-(6-((1-(4,5-dichlorothiazol-2-yl)ethyl)amino)-3-(trifluoromethyl)-2H-indazol-2-yl)acetamide] in this work. An IC50 of less than 100 nM was found for CC[C@H](C(N)=O)c1ccc(N[C@@H](C)c2nc(Cl)c(Cl)s2)cc1 (single isomer, unassigned) [Compound 302] in this work. An IC50 greater than 1000 nM was found for O=C1NCCc2ccc(NC(c3ccccc3)c3ccccc3)cc21 [Example 124, 7-(benzhydrylamino)-3,4-dihydroisoquinolin-1(2H)-one] in this work.
